Values quoted from earlier work, collected in US10864174B2, “Method maintaining iron homeostasis with shogaols” (priority 2016, dated 2020).

How the values were obtained:
[1] = test system: HCT-116 human colon cancer cells; conditions: one value given for both cell lines, read-out: IC50, growth inhibition
arachidonic acid pathway = conditions: compared with [6]-gingerol
[2] = test system: nitric oxide (NO) synthesis; conditions: compared with [6]-gingerol
[3] = test system: H1299 human lung cancer cells; conditions: one value given for both cell lines, read-out: IC50, growth inhibition

## CCCCC/C=C/C(=O)CCc1ccc(O)c(OC)c1 [[6]-shogaol]
[1]
  IC50: ~8 µM
Arachidonic acid pathway
  inhibitory effects on the arachidonic acid pathway: much stronger inhibitory effects
[2]
  inhibitory effects on nitric oxide (NO) synthesis: much stronger inhibitory effects
[3]
  IC50: ~8 µM

## CCCCC[C@H](O)CC(=O)CCc1ccc(O)c(OC)c1 [[6]-gingerol, reference compound]
[1]
  IC50: ~150 µM
[3]
  IC50: ~150 µM
